Test [1] concerns the target T1, ASGPR receptor on HepG2 cells (ternary complex with AF488-labeled antibody) (Homo sapiens, UniProt P07306).
T1 construct: host or cells: HepG2
T1 sequence (P07306 1-291): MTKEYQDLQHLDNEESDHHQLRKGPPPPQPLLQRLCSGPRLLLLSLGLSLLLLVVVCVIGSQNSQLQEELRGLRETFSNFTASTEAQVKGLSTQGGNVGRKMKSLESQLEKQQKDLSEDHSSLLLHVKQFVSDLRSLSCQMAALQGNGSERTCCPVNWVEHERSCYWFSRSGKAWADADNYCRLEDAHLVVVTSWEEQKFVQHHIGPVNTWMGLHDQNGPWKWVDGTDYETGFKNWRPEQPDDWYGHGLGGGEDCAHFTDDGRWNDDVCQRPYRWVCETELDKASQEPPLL
T1 sequence (P07307 1-311 partner): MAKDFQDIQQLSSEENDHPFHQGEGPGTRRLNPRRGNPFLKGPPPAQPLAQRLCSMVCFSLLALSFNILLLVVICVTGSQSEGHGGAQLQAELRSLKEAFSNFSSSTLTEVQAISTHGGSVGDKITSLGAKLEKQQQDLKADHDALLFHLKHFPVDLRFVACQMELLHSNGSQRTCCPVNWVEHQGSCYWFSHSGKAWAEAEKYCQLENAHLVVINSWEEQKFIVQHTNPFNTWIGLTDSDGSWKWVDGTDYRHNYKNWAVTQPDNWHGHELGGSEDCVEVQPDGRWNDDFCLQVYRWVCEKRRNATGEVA
Description: Ternary complex formation assay (flow cytometry, cell-associated AF488 fluorescence). The class given is cell-based. Conditions: 100 nM AF488-labeled antibody, 1 hour at 4° C.

The target of another test is T2, ASGPR (Homo sapiens, UniProt P07306).
T2 construct: biotin (biotinylated)
T2 sequence (P07306 1-291): T1 sequence (P07306 1-291)
The test can be described thus: ASGPR SPR binding. For orientation: In SPR one partner is held on a chip, and binding of the other changes the refractive index at the surface.

A further test deals with HepG2 cells. The test can be described thus: Cellular uptake assay (high-content imaging). The conditions noted are these: 100 nM AF488-labeled antibody, 6 hours at 37° C. The class given is cell-based, human. An excerpt:
The cellular uptake assay is designed to measure compound-mediated cellular uptake of fluorescently labeled antibody following ternary complex formation with the ASGPR receptor and endocytosis of the entire complex into cells. The optimal concentration of compound will result in the maximum number of cells with intracellular antibody and is represented as the peak ratio of antibody-positive cells over the total number of cells. As with the ternary complex formation assay, too much or too little compound will result in suboptimal complex formation and fewer cells will have measurable intracellular fluorescence.
Human IgG (Sigma-Aldrich, 14506) was covalently labeled with Alexa Fluor 488 using the Alexa Fluor™ 488 Protein Labeling Kit (Thermo Fisher, A10235) following the manufacturer's instructions. HepG2 cells were plated in DMEM supplemented with 10% FBS at 5,000 cells per well in a 96-well microtiter plate and incubated for approximately 18 hours at 37° C./5% CO2. For studies using human IgG, 100 nM AF488-labeled human IgG antibodies and serial dilutions of IgG-based degrader (0.1% DMSO final concentration) were added to the cells and the mixture was incubated at 37° C. for 6 hours. For studies using DNP, 100 nM AF488-labeled DNP antibodies and serial dilutions of DNP-based degrader (0.1% DMSO final concentration) were added to the cells and the mixture was incubated at 37° C. for 6 hours. HepG2 cells were fixed in 100% methanol at −20° C. for 20 min, washed 3× with PBS, then stained with DAPI (Thermo, Cat #H3570). HepG2 cells were imaged for DAPI and Alexa Fluor 488 using the Operetta CLS, high-content analysis system (PerkinElmer). Data is presented as the ratio of the number of cells positive for hIgG or DNP (AF-488 fluorescence) over the total cell number (measured by DAPI).

The next test has as its target IgG. Description: IgG SPR binding.
Setting [2] is: Table 3, class symbols, read-out: Ternary Complex EC50.
Setting [3] is: Table 3, read-out: ASGPR SPR Binding KD.
Setting [4] is: Homo sapiens, Table 3, class symbols, read-out: Uptake Assay (EC50).
[5] abbreviates: Table 3, read-out: IgG SPR Binding KD.
Setting [6] is: the 25th table, class symbols, read-out: TCF EC50.
[7] abbreviates: the 25th table, class symbols, read-out: Uptake EC50.
Where [8] appears, read: second table, read-out: ASGPR KD.

Each structure is given as a SMILES string. pEC50, pKd: −log10 of the molar value. Read-outs that look alike come from different tables or passages of the source. Bounds are passed on as bounds.

Turning to `CC(C)C[C@@H]1NC(=O)[C@H](Cc2cnc[nH]2)NC(=O)[C@H](Cc2c[nH]c3ccccc23)NC(=O)[C@H](C)NC(=O)[C@@H]2CSSC[C@H](NC(=O)[C@H](Cc3c[nH]c4ccccc34)NC(=O)[C@H](C(C)C)NC(=O)[C@H](CC(C)C)NC(=O)[C@H](CCC(=O)O)NC(=O)CNC1=O)C(=O)N[C@@H]([C@@H](C)O)C(=O)N1CCC[C@@H]1C(=O)N1C[C@@H](NC(=O)COCCOCC(=O)NC[C@H]3OC[C@H](Nc4cccc(C(F)(F)F)n4)[C@@H](O)[C@H]3O)C[C@H]1C(=O)N[C@@H](CC(=O)O)C(=O)N2` [compound 25], the pEC50 (in test [1] (setting [2]); with HepG2 cells (setting [4])) was more than 7.00 each time. Besides, the pKd (usually the Kd on a negative log10 scale, so that one unit is a factor of ten) on ASGPR (setting [3]) is 6.00 to 6.30.

`CC(C)C[C@@H]1NC(=O)[C@H](Cc2cnc[nH]2)NC(=O)[C@H](Cc2c[nH]c3ccccc23)NC(=O)[C@H](C)NC(=O)[C@@H]2CSSC[C@H](NC(=O)[C@H](Cc3c[nH]c4ccccc34)NC(=O)[C@H](C(C)C)NC(=O)[C@H](CC(C)C)NC(=O)[C@H](CCC(=O)O)NC(=O)CNC1=O)C(=O)N[C@@H]([C@@H](C)O)C(=O)N1CCC[C@@H]1C(=O)N1C[C@@H](NC(=O)c3ccc(N4CCC(CN5CCN(C[C@H]6OC[C@H](Nc7cccc(C(F)(F)F)n7)[C@@H](O)[C@H]6O)CC5)CC4)cc3)C[C@H]1C(=O)N[C@@H](CC(=O)O)C(=O)N2` [compound 26]: the pEC50 (in test [1] (setting [2]); in the test with HepG2 cells (setting [4])) was more than 7.00 each time. The pKd on IgG (setting [5]) and at ASGPR (setting [3]) was more than 7.00 throughout.

With `CC(C)C[C@@H]1NC(=O)[C@H](Cc2cnc[nH]2)NC(=O)[C@H](Cc2c[nH]c3ccccc23)NC(=O)[C@H](C)NC(=O)[C@@H]2CSSC[C@H](NC(=O)[C@H](Cc3c[nH]c4ccccc34)NC(=O)[C@H](C(C)C)NC(=O)[C@H](CC(C)C)NC(=O)[C@H](CCC(=O)O)NC(=O)CNC1=O)C(=O)N[C@@H]([C@@H](C)O)C(=O)N1CCC[C@@H]1C(=O)N1C[C@@H](NC(=O)c3ccc(N4CCC(CN5CCN(C[C@H]6OC[C@H](Nc7nc(C(F)(F)F)ccc7F)[C@@H](O)[C@H]6O)CC5)CC4)cc3)C[C@H]1C(=O)N[C@@H](CC(=O)O)C(=O)N2` [compound 27], the negative logarithm of the EC50 (pEC50) (in test [1] (setting [2]); in the test on HepG2 cells (setting [4])) was more than 7.00 in each case. The pKd at IgG (setting [5]) and at ASGPR (setting [3]) was more than 7.00 each time.

For `CC(C)C[C@@H]1NC(=O)[C@H](Cc2cnc[nH]2)NC(=O)[C@H](Cc2c[nH]c3ccccc23)NC(=O)[C@H](C)NC(=O)[C@@H]2CSSC[C@H](NC(=O)[C@H](Cc3c[nH]c4ccccc34)NC(=O)[C@H](C(C)C)NC(=O)[C@H](CC(C)C)NC(=O)[C@H](CCC(=O)O)NC(=O)CNC1=O)C(=O)N[C@@H]([C@@H](C)O)C(=O)N1CCC[C@@H]1C(=O)N1C[C@H](NC(=O)COCCOCC(=O)NC[C@H]3OC[C@H](Nc4cccc(C(F)(F)F)n4)[C@@H](O)[C@H]3O)C[C@H]1C(=O)N[C@@H](CC(=O)O)C(=O)N2` [compound 28], the pEC50 – broadly, the EC50 on a negative log10 scale, so that one unit is a factor of ten – was more than 7.00 in test [1] (setting [2]) and less than 5.96 in the test with HepG2 cells (Homo sapiens, Table 3, numeric bounds, read-out: Uptake Assay (EC50)). The pKd at IgG (setting [5]) and on ASGPR (setting [3]) was more than 7.00 throughout.

On to `CC(C)C[C@@H]1NC(=O)[C@H](Cc2cnc[nH]2)NC(=O)[C@H](Cc2c[nH]c3ccccc23)NC(=O)[C@H](C)NC(=O)[C@@H]2CSSC[C@H](NC(=O)[C@H](Cc3c[nH]c4ccccc34)NC(=O)[C@H](C(C)C)NC(=O)[C@H](CC(C)C)NC(=O)[C@H](CCC(=O)O)NC(=O)CNC1=O)C(=O)N[C@@H]([C@@H](C)O)C(=O)N1CCC[C@@H]1C(=O)N1C[C@H](NC(=O)c3ccc(N4CCC(CN5CCN(C[C@H]6OC[C@H](Nc7cccc(C(F)(F)F)n7)[C@@H](O)[C@H]6O)CC5)CC4)cc3)C[C@H]1C(=O)N[C@@H](CC(=O)O)C(=O)N2` [compound 29], for which the values for the pEC50 (in test [1] (setting [2]); in the test on HepG2 cells (setting [4])) were more than 7.00 and 6.30 to 7.00, respectively. Further, the pKd on IgG (setting [5]) and at ASGPR (setting [3]) was more than 7.00 throughout.

In the case of `CC(C)C[C@@H]1NC(=O)[C@H](Cc2cnc[nH]2)NC(=O)[C@H](Cc2c[nH]c3ccccc23)NC(=O)[C@H](C)NC(=O)[C@@H]2CSSC[C@H](NC(=O)[C@H](Cc3c[nH]c4ccccc34)NC(=O)[C@H](C(C)C)NC(=O)[C@H](CC(C)C)NC(=O)[C@H](CCC(=O)O)NC(=O)CNC1=O)C(=O)N[C@@H]([C@@H](C)O)C(=O)N1CCC[C@@H]1C(=O)N1C[C@@H](NC(=O)CCOCCOCCOCCOCCNC(=O)CCCc3cn(CCCCCC(=O)NC(COCCC(=O)NCCO[C@@H]4O[C@H](CO)[C@H](O)[C@H](O)[C@H]4Nc4cncc(C(F)(F)F)n4)COCCC(=O)NCCO[C@@H]4O[C@H](CO)[C@H](O)[C@H](O)[C@H]4Nc4cncc(C(F)(F)F)n4)nn3)C[C@H]1C(=O)N[C@@H](CC(=O)O)C(=O)N2` [compound 84], the pEC50 (in test [1] (setting [6]); in the test on HepG2 cells (setting [7])) was more than 7.00 in each case.

Turning to `CC(C)C[C@@H]1NC(=O)[C@H](Cc2cnc[nH]2)NC(=O)[C@H](Cc2c[nH]c3ccccc23)NC(=O)[C@H](C)NC(=O)[C@@H](NC(=O)[C@H](CC(=O)O)NC(=O)CCOCCCCOCCCCOCCCCOCCNC(=O)CCCc2cn(CCCCCC(=O)NC(COCCC(=O)NCCOCCOCCOCCOC[C@H]3OC[C@H](Nc4nccc(C(F)(F)F)n4)C[C@H]3O)COCCC(=O)NCCOCCOCCOCCOC[C@H]3OC[C@H](Nc4nccc(C(F)(F)F)n4)C[C@H]3O)nn2)CSSC[C@@H](C(=O)N[C@H](C(N)=O)[C@@H](C)O)NC(=O)[C@H](Cc2c[nH]c3ccccc23)NC(=O)[C@H](C(C)C)NC(=O)[C@H](CC(C)C)NC(=O)[C@H](CCC(=O)O)NC(=O)CNC1=O` [compound 92], the pEC50 (in test [1] (setting [6]); in the test on HepG2 cells (setting [7])) was less than 6.00 each time. Also, on ASGPR (setting [8]), the pKd is less than 6.00.

As for `CC(C)C[C@@H]1NC(=O)[C@H](Cc2cnc[nH]2)NC(=O)[C@H](Cc2c[nH]c3ccccc23)NC(=O)[C@H](C)NC(=O)[C@@H](NC(=O)[C@H](CC(=O)O)NC(=O)CCOCCOCCOCCOCCNC(=O)CCCc2cn(CCCCCC(=O)NC(COCCC(=O)NCCOCCOCCOCCOC[C@H]3CO[C@H](Nc4cncc(C(F)(F)F)n4)[C@@H](O)[C@H]3O)(COCCC(=O)NCCOCCOCCOCCOC[C@H]3OC[C@H](Nc4nccc(C(F)(F)F)n4)[C@@H](O)[C@H]3O)COCCC(=O)NCCOCCOCCOCCOC[C@H]3OC[C@H](Nc4nccc(C(F)(F)F)n4)[C@@H](O)[C@H]3O)nn2)CSSC[C@@H](C(=O)N[C@H](C(N)=O)[C@@H](C)O)NC(=O)[C@H](Cc2c[nH]c3ccccc23)NC(=O)[C@H](C(C)C)NC(=O)[C@H](CC(C)C)NC(=O)[C@H](CCC(=O)O)NC(=O)CNC1=O` [compound 94], the pEC50 (in test [1] (setting [6]); in the test on HepG2 cells (setting [7])) was more than 7.00 throughout. In addition, the pKd at ASGPR (setting [8]) was more than 7.00.

`CC(C)C[C@@H]1NC(=O)[C@H](Cc2cnc[nH]2)NC(=O)[C@H](Cc2c[nH]c3ccccc23)NC(=O)[C@H](C)NC(=O)[C@@H]2CSSC[C@H](NC(=O)[C@H](Cc3c[nH]c4ccccc34)NC(=O)[C@H](C(C)C)NC(=O)[C@H](CC(C)C)NC(=O)[C@H](CCC(=O)O)NC(=O)CNC1=O)C(=O)N[C@@H]([C@@H](C)O)C(=O)N1CCC[C@@H]1C(=O)N1C[C@H](NC(=O)COCCOCC(=O)NC[C@H]3OC[C@H](Nc4cncc(C(F)(F)F)n4)[C@@H](O)[C@H]3O)C[C@H]1C(=O)N[C@@H](CC(=O)O)C(=O)N2` [compound 96]: the pKd was more than 7.00 at IgG (second table, read-out: IgG KD) and more than 7.00 on ASGPR (setting [8]). In the test with HepG2 cells (Homo sapiens, the 25th table, class symbols, read-out: Uptake EC50), the pEC50 was more than 7.00.

Source of the values: US20260083851A1 (AVILAR THERAPEUTICS, INC., priority 2022, published 2026).
